# Laboratory results published in US4141989A, “Fungicidal 3-(N-chloroacetyl-N-arylamino)-gamma-butyrolactone compositions” (Chevron Research Company, priority 1977, dated 1979).
# Tests used:
# Assay type in all cases: in vivo
# [1] = test system: Plasmopara viticola; test: Preventive grape downy mildew control, detached Emperor leaves (Example 5, Table I); conditions: 100 ppm, sprayed before inoculation
# [2] = test system: Plasmopara viticola; test: Eradicant grape downy mildew control, detached Emperor leaves (Example 6, Table I); conditions: 48 h, sprayed 2 days after inoculation, read-out: Eradicative Grape Downy Mildew Control, %
# [3] = test system: Plasmopara viticola; test: Preventive grape downy mildew control, detached Cabernet Sauvignon leaves (Example 7, Table II)
# [4] = test system: Bremia lactucae; test: Control of lettuce downy mildew (Example 13, Table VIII)
# [5] = test system: Pseudoperonospora cubensis; test: Foliar spray control of cucumber downy mildew (Example 15, Table X)
# [6] = test system: Phytophthora cryptogea; test: Snapdragon crown and root rot control, soil drench (Example 16, Table XI); conditions: in vivo
# [7] = test system: Phytophthora cryptogea; test: Snapdragon crown and root rot control, foliar spray (Example 16, Table XI); conditions: in vivo
# [8] = test system: Phytophthora cryptogea; test: Safflower crown and root rot control by foliar spray (Example 17, Table XII)
# [9] = test system: Plasmopara viticola; test: Eradicant downy mildew control on Emperor and Carignane grape leaves (Example 9, Table IV)
# [10] = Carignane leaves, treated 3 days after inoculation
# [11] = Emperor leaves, treated 1 day after inoculation
# [12] = Emperor leaves, treated 2 days after inoculation
molecule,measurement,setting,value
CCc1cccc(CC)c1N(C(=O)CCl)C1CCOC1=O (stereo not shown) [Compound 6],pest or weed control at 100 ppm,[1],0%
same,pest or weed control at 100 ppm,[2],39%
Cc1cccc(C)c1N(C(=O)c1ccc(Cl)c(Cl)c1)C1CCOC1=O (stereo not shown) [Compound 2],pest or weed control at 100 ppm,[2],29%
O=C1OCCC1N(C(=O)CCl)c1cc(Cl)cc(Cl)c1 (stereo not shown) [Compound 11],pest or weed control at 100 ppm,[1],45%
same,pest or weed control at 100 ppm,[2],54%
COc1cccc(OC)c1N(C(=O)CCl)C1CCOC1=O (stereo not shown) [Compound 16],pest or weed control at 100 ppm,[2],67%
CCc1cccc(C)c1N(C(=O)CCl)C1CC(C)OC1=O (stereo not shown) [Compound 14],pest or weed control at 100 ppm,[2],29%
CC(C)c1ccccc1N(C(=O)CCl)C1CCOC1=O (stereo not shown) [Compound 7],pest or weed control at 100 ppm,[1],3%
same,pest or weed control at 16 ppm,[2]; 16 ppm,17%
Cc1ccc(N(C(=O)CCl)C2CCOC2=O)cc1C (stereo not shown) [Compound 26],pest or weed control at 100 ppm,[1],12%
same,pest or weed control at 100 ppm,[2],87%
"COC(=O)C(C)N(C(=O)CCl)c1c(C)cccc1C (stereo not shown) [Compound 27, reference compound]",pest or weed control at 100 ppm,[1],78%
same,pest or weed control at 100 ppm,[2],96%
Cc1cccc(C)c1N(C(=O)C(Cl)=C(Cl)Cl)C1CCOC1=O (stereo not shown) [Compound 19],pest or weed control at 100 ppm,[2],15%
CCC(=O)N(c1ccc(Cl)c(Cl)c1)C1CCOC1=O (stereo not shown) [Compound 1],pest or weed control at 100 ppm,[1],0%
same,pest or weed control at 40 ppm,[2],5%
"O=C1c2ccccc2C(=O)N1SC(Cl)(Cl)Cl [Folpet, N-(trichloromethylthio)phthalimide, reference compound]",Percent Control,[3]; 6.4 ppm,80.1%
same,Percent Control,[3]; 16 ppm,98.8%
same,Percent Control,[3]; 40 ppm,97.7%
"Manganous ethylene bisdithiocarbamate [Maneb, reference compound]",% Dead Seedlings,[4],14.5%
same,% Control,[4]; in vivo,40.6%
same,% Control,[5]; 16 ppm,80%
same,% Control,[5]; 40 ppm,90%
same,% Control,[5]; 100 ppm,98.3%
Cc1cc(N2CCC(N(C(=O)CCl)c3c(C)cccc3C)C2=O)ccc1Cl (stereo not shown) [Compound 22],pest or weed control at 100 ppm,[2],32%
Cc1cccc(C(C)(C)C)c1N(C(=O)CCl)C1CCOC1=O (stereo not shown) [Compound 25],pest or weed control at 100 ppm,[2],0%
"{[1,2-ethanediylbis(carbamodithioato)](2-)} manganese mixture with {[1,2-ethanediylbis(carbamodithioato)](2-)}-0 zinc [Mancozeb, reference compound]",% Control,[6],0%
same,% Control,[7],0%
O=C1OCCC1N(C(=O)CCl)c1ccc(Cl)c(Cl)c1 (stereo not shown) [Compound 10],pest or weed control at 100 ppm,[1],89%
same,pest or weed control at 100 ppm,[2],39%
Cc1cccc(C)c1N(C(=O)c1ccc(Cl)cc1)C1CCN(C)C1=O (stereo not shown) [Compound 23],pest or weed control at 100 ppm,[2],0%
Cc1cc(C)c(N(C(=O)CCl)C2CCOC2=O)c(C)c1 (stereo not shown) [Compound 24],pest or weed control at 100 ppm,[2],0%
"COC(=O)C(C)N(C(=O)CCl)c1c(C)cccc1C (stereo not shown) [drawing 3, reference compound]",% Control,[8]; 16 ppm,0%
same,% Control,[8]; 40 ppm,0%
same,% Control,[8]; 100 ppm,10%
O=C1OCCC1N(C(=O)CCl)c1ccccc1 (stereo not shown) [Compound 5],pest or weed control at 100 ppm,[2],0%
Cc1cccc(C)c1N(C(=O)CCl)C1CCN(C(C)C)C1=O (stereo not shown) [Compound 18],pest or weed control at 100 ppm,[1],15%
same,pest or weed control at 100 ppm,[2],37%
Cc1cccc(C)c1N(C(=O)CCl)C1CCN(C)C1=O (stereo not shown) [Compound 4],pest or weed control at 100 ppm,[2],3%
"Cc1cccc(C)c1N(C(=O)CCl)C1CC(C)OC1=O (stereo not shown) [B, 3-(N-chloroacetyl-N-2,6-dimethylphenylamino)-5-methyl-gamma-butyrolactone]",pest or weed control at 100 ppm,[1],80%
same,pest or weed control at 40 ppm,[2],95%
Cc1cccc(C)c1N(C(=O)CBr)C1CCOC1=O (stereo not shown) [Compound 15],pest or weed control at 100 ppm,[2],54%
O=C1OCCC1N(C(=O)CCl)c1c(Cl)cccc1Cl (stereo not shown) [Compound 9],pest or weed control at 100 ppm,[1],0%
same,pest or weed control at 40 ppm,[2],67%
same,pest or weed control at 100 ppm,[2],95%
CCc1ccccc1N(C(=O)CCl)C1CCOC1=O (stereo not shown) [Compound 8],pest or weed control at 100 ppm,[1],0%
same,pest or weed control at 100 ppm,[2],0%
Cc1cccc(C)c1N(C(=O)CCl)C1CCNC1=O (stereo not shown) [Compound 21],pest or weed control at 100 ppm,[2],0%
Cc1cccc(C)c1N(C(=O)CCCl)C1CCOC1=O (stereo not shown) [Compound 17],pest or weed control at 100 ppm,[2],50%
C=CCN1CCC(N(C(=O)CCl)c2c(C)cccc2C)C1=O (stereo not shown) [Compound 20],pest or weed control at 100 ppm,[2],0%
O=S(=O)([O-])[O-].[Cu+2] [Cupric sulfate],Eradication ED50 (ppm of applied spray for 50% control),[9]; [10],380 ppm
same,Eradication ED90 (ppm of applied spray for 90% control),[9]; [10],610 ppm
same,Eradication ED50 (ppm of applied spray for 50% control),[9]; [11],118 ppm
same,Eradication ED90 (ppm of applied spray for 90% control),[9]; [11],289 ppm
same,Eradication ED50 (ppm of applied spray for 50% control),[9]; [12],204 ppm
same,Eradication ED90 (ppm of applied spray for 90% control),[9]; [12],445 ppm
CCc1cccc(C)c1N(C(=O)CCl)C1CCOC1=O (stereo not shown) [Compound 13],pest or weed control at 100 ppm,[1],0%
same,pest or weed control at 100 ppm,[2],87%
CCc1cccc(CC)c1N(C(=O)CCl)C1CC(C)OC1=O (stereo not shown) [Compound 12],pest or weed control at 100 ppm,[2],87%
COc1ccccc1N(C(=O)CCl)C1CCOC1=O (stereo not shown) [Compound 3],pest or weed control at 100 ppm,[1],0%
same,pest or weed control at 100 ppm,[2],12%
